Reference: ChEMBL document CHEMBL4371034, “Design, synthesis, biological evaluation, structure-activity relationship, and toxicity of clinafloxacin-azole conjugates as novel antitubercular agents” (Bioorg Med Chem, 2019)
In brackets after ≈: the same amount, converted by molar mass. Activity calls are given as the source filed them. The rule behind the calls is not given here.

How the values were obtained:
[1] = target: Voltage-gated inwardly rectifying potassium channel KCNH2 (Homo sapiens, UniProt Q12809); assay: Inhibition of human ERG
Voltage-gated inwardly rectifying potassium channel KCNH2, sequence (Q12809 whole entry, the tested form may be a part): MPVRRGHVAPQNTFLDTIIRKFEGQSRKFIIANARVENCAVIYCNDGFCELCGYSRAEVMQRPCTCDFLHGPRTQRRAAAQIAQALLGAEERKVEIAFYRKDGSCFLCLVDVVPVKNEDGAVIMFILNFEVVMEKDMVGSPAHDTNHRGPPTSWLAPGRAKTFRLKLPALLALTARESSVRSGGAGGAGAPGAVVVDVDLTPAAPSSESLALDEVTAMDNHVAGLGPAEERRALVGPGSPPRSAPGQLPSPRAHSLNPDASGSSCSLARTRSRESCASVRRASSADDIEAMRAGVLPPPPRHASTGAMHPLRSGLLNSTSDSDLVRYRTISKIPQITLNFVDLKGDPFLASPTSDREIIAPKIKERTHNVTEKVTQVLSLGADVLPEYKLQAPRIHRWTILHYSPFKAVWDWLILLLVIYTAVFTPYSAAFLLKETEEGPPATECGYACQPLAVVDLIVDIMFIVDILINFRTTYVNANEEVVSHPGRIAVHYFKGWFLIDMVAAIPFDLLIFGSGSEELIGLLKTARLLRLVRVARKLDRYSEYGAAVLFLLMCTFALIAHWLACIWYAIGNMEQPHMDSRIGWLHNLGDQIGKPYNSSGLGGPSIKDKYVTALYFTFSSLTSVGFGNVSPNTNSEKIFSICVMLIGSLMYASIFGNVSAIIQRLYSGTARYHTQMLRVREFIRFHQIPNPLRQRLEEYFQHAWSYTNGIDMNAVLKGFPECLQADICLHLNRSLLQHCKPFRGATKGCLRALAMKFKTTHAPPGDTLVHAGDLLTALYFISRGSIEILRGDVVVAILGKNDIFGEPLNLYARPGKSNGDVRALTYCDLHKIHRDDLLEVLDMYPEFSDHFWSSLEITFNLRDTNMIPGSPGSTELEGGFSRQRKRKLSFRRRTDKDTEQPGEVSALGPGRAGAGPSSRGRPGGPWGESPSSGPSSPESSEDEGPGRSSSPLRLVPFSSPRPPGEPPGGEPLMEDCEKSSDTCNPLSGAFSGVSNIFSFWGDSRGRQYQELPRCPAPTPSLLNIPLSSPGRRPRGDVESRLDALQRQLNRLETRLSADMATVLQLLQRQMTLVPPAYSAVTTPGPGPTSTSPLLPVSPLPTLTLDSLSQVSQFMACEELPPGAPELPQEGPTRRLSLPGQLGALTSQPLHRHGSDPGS

[2] = test system: Staphylococcus aureus; assay: Antibacterial activity against Staphylococcus aureus ATCC 29213 assessed as diameter of zone of inhibition at 80 ug/ml after 18 hrs by agar diffusion method; assay type: functional; settings: for zone of inhibition at 80 µg/mL: ATCC 29213, 18 h, read-out: DIZ
[3] = test system: Mycobacterium tuberculosis; assay: Antitubercular activity against Mycobacterium tuberculosis H37Rv after 6 days by […]; assay type: functional; settings: 144 h
[4] = Cytotoxicity against human HeLa cells assessed as growth inhibition at 20 uM by Celltiter-Glo luminescence assay; assay type: cell-based; settings: read-out: GI
[5] = test system: Mycobacterium tuberculosis; assay: Antitubercular activity against Mycobacterium tuberculosis H37Rv assessed as growth inhibition at 20 uM after 6 days by […]; assay type: functional; settings: 144 h, read-out: GI
[6] = test system: Pseudomonas aeruginosa; assay: Antibacterial activity against Pseudomonas aeruginosa PS1.0050 assessed as diameter of zone of inhibition at 80 ug/ml after 18 hrs by agar diffusion method; assay type: functional; settings: for zone of inhibition at 80 µg/mL: PS1.0050, 18 h, read-out: DIZ
[7] = test system: Salmonella; assay: Antibacterial activity against Salmonella S1.1152 assessed as diameter of zone of inhibition at 80 ug/ml after 18 hrs by agar diffusion method; assay type: functional; settings: for zone of inhibition at 80 µg/mL: S1.1152, 18 h, read-out: DIZ
[8] = test system: Escherichia coli; assay: Antibacterial activity against duck Escherichia coli clinical isolates assessed as diameter of zone of inhibition at 80 ug/ml after 18 hrs by agar diffusion method; assay type: functional; settings: for zone of inhibition at 80 µg/mL: read-out: DIZ
[9] = test system: HeLa; assay: Cytotoxicity against human HeLa cells by Celltiter-Glo luminescence assay; assay type: cell-based
[10] = test system: Salmonella; assay: Antibacterial activity against Salmonella S1.1152 measured after 120 days of sample dissolution by serial dilution method; assay type: functional
[11] = test system: Pseudomonas aeruginosa; assay: Antibacterial activity against Pseudomonas aeruginosa PS1.0050 measured after 120 days of sample dissolution by serial dilution method; assay type: functional
[12] = test system: Escherichia coli; assay: Antibacterial activity against duck Escherichia coli clinical isolates measured after 120 days of sample dissolution by serial dilution method; assay type: functional
[13] = test system: Staphylococcus aureus; assay: Antibacterial activity against Staphylococcus aureus ATCC 29213 measured after 120 days of sample dissolution by serial dilution method; assay type: functional

O=C(CCn1nccn1)NC1CCN(c2c(F)cc3c(=O)c(C(=O)O)cn(C4CC4)c3c2Cl)C1 (centres undefined)
IC50 [1]: > 1000 nM

O=C(Cn1cnc2ccccc21)NC1CCN(c2c(F)cc3c(=O)c(C(=O)O)cn(C4CC4)c3c2Cl)C1 (centres undefined)
IC50 [1]: > 1000 nM

O=C(Cn1nccn1)NC1CCN(c2c(F)cc3c(=O)c(C(=O)O)cn(C4CC4)c3c2Cl)C1 (centres undefined)
IC50 [1]: > 1000 nM

O=C(Cn1cncn1)NC1CCN(c2c(F)cc3c(=O)c(C(=O)O)cn(C4CC4)c3c2Cl)C1 (centres undefined)
IC50 [1]: > 1000 nM

O=C(CCn1cnc2ccccc21)NC1CCN(c2c(F)cc3c(=O)c(C(=O)O)cn(C4CC4)c3c2Cl)C1 (centres undefined)
IC50 [1]: > 1000 nM

Nc1nnn(CC(=O)NC2CCN(c3c(F)cc4c(=O)c(C(=O)O)cn(C5CC5)c4c3Cl)C2)n1 (centres undefined)
IC50 [1]: > 1000 nM

O=C(CCn1ccnn1)NC1CCN(c2c(F)cc3c(=O)c(C(=O)O)cn(C4CC4)c3c2Cl)C1 (centres undefined)
IC50 [1]: > 1000 nM
zone of inhibition at 80 µg/mL [2]: 7 mm
MIC [3]: 2.95 µM (≈ 1.44 µg/mL)
inhibition at 20 µM [4]: -9.5%
inhibition of growth at 20 µM [5]: 96.9%
zone of inhibition at 80 µg/mL [6]: 14 mm
diameter of the inhibition zone (DIZ) [7]: inactive
diameter of the inhibition zone (DIZ) [8]: inactive
IC50 [9]: > 20000 nM

Nc1ccn(CC(=O)NC2CCN(c3c(F)cc4c(=O)c(C(=O)O)cn(C5CC5)c4c3Cl)C2)n1 (centres undefined)
IC50 [1]: > 1000 nM
zone of inhibition at 80 µg/mL [2]: 23 mm
MIC [10]: 16 µg/mL (≈ 32.7 µM)
MIC [3]: 1.69 µM (≈ 0.826 µg/mL)
MIC [11]: 2 µg/mL (≈ 4.09 µM)
inhibition at 20 µM [4]: -17.1%
MIC [12]: > 16 µg/mL
inhibition of growth at 20 µM [5]: 98.5%
zone of inhibition at 80 µg/mL [6]: 25 mm
zone of inhibition at 80 µg/mL [7]: 23 mm
zone of inhibition at 80 µg/mL [8]: 23 mm
MIC [13]: 16 µg/mL (≈ 32.7 µM)

O=C(Cn1nnc2ccccc21)NC1CCN(c2c(F)cc3c(=O)c(C(=O)O)cn(C4CC4)c3c2Cl)C1 (centres undefined)
IC50 [1]: > 1000 nM

Cc1nnn(CC(=O)NC2CCN(c3c(F)cc4c(=O)c(C(=O)O)cn(C5CC5)c4c3Cl)C2)n1 (centres undefined)
IC50 [1]: > 1000 nM

O=C(Cn1ccnn1)NC1CCN(c2c(F)cc3c(=O)c(C(=O)O)cn(C4CC4)c3c2Cl)C1 (centres undefined)
IC50 [1]: > 1000 nM
zone of inhibition at 80 µg/mL [2]: 17 mm
MIC [10]: 16 µg/mL (≈ 33.7 µM)
MIC [3]: 2.28 µM (≈ 1.08 µg/mL)
MIC [11]: 1 µg/mL (≈ 2.11 µM)
inhibition at 20 µM [4]: -10.1%
MIC [12]: > 16 µg/mL
inhibition of growth at 20 µM [5]: 98.5%
zone of inhibition at 80 µg/mL [6]: 19 mm
zone of inhibition at 80 µg/mL [7]: 19 mm
zone of inhibition at 80 µg/mL [8]: 16 mm
MIC [13]: 4 µg/mL (≈ 8.42 µM)

O=C(CCn1cccn1)NC1CCN(c2c(F)cc3c(=O)c(C(=O)O)cn(C4CC4)c3c2Cl)C1 (centres undefined)
IC50 [1]: > 1000 nM

Nc1nnc(SCC(=O)NC2CCN(c3c(F)cc4c(=O)c(C(=O)O)cn(C5CC5)c4c3Cl)C2)s1 (centres undefined)
IC50 [1]: > 1000 nM
zone of inhibition at 80 µg/mL [2]: 12 mm
MIC [10]: 16 µg/mL (≈ 29.7 µM)
MIC [3]: 0.66 µM (≈ 0.356 µg/mL)
MIC [11]: 4 µg/mL (≈ 7.42 µM)
inhibition at 20 µM [4]: -11.2%
MIC [12]: > 16 µg/mL
inhibition of growth at 20 µM [5]: 99%
zone of inhibition at 80 µg/mL [6]: 15 mm
zone of inhibition at 80 µg/mL [7]: 12 mm
zone of inhibition at 80 µg/mL [8]: 12 mm
MIC [13]: 8 µg/mL (≈ 14.8 µM)
IC50 [9]: > 20000 nM

Cc1nccn1CCC(=O)NC1CCN(c2c(F)cc3c(=O)c(C(=O)O)cn(C4CC4)c3c2Cl)C1 (centres undefined)
IC50 [1]: > 1000 nM

Cn1nnc(SCC(=O)NC2CCN(c3c(F)cc4c(=O)c(C(=O)O)cn(C5CC5)c4c3Cl)C2)n1 (centres undefined)
IC50 [1]: > 1000 nM

O=C(Cn1ccnc1)NC1CCN(c2c(F)cc3c(=O)c(C(=O)O)cn(C4CC4)c3c2Cl)C1 (centres undefined)
IC50 [1]: > 1000 nM

O=C(Cn1cccn1)NC1CCN(c2c(F)cc3c(=O)c(C(=O)O)cn(C4CC4)c3c2Cl)C1 (centres undefined)
IC50 [1]: > 1000 nM

Nc1nnn(CCC(=O)NC2CCN(c3c(F)cc4c(=O)c(C(=O)O)cn(C5CC5)c4c3Cl)C2)n1 (centres undefined)
IC50 [1]: > 1000 nM

O=C(CCn1cncn1)NC1CCN(c2c(F)cc3c(=O)c(C(=O)O)cn(C4CC4)c3c2Cl)C1 (centres undefined)
IC50 [1]: > 1000 nM

Cc1cc(C)n(CCC(=O)NC2CCN(c3c(F)cc4c(=O)c(C(=O)O)cn(C5CC5)c4c3Cl)C2)n1 (centres undefined)
IC50 [1]: > 1000 nM

O=C(CCn1ccnc1)NC1CCN(c2c(F)cc3c(=O)c(C(=O)O)cn(C4CC4)c3c2Cl)C1 (centres undefined)
IC50 [1]: > 1000 nM

O=C(Cn1cnnn1)NC1CCN(c2c(F)cc3c(=O)c(C(=O)O)cn(C4CC4)c3c2Cl)C1 (centres undefined)
IC50 [1]: > 1000 nM

Cc1cn(CCC(=O)NC2CCN(c3c(F)cc4c(=O)c(C(=O)O)cn(C5CC5)c4c3Cl)C2)cn1 (centres undefined)
IC50 [1]: > 1000 nM

Cc1cc(C)n(CC(=O)NC2CCN(c3c(F)cc4c(=O)c(C(=O)O)cn(C5CC5)c4c3Cl)C2)n1 (centres undefined)
IC50 [1]: > 1000 nM

Nc1nnc(SCCC(=O)NC2CCN(c3c(F)cc4c(=O)c(C(=O)O)cn(C5CC5)c4c3Cl)C2)s1 (centres undefined)
IC50 [1]: > 1000 nM
diameter of the inhibition zone (DIZ) [2]: inactive
MIC [3]: 3.9 µM (≈ 2.16 µg/mL)
inhibition at 20 µM [4]: -21.2%
inhibition of growth at 20 µM [5]: 95.8%
diameter of the inhibition zone (DIZ) [6]: inactive
diameter of the inhibition zone (DIZ) [7]: inactive
diameter of the inhibition zone (DIZ) [8]: inactive
IC50 [9]: > 20000 nM

Cc1cn(CC(=O)NC2CCN(c3c(F)cc4c(=O)c(C(=O)O)cn(C5CC5)c4c3Cl)C2)cn1 (centres undefined)
IC50 [1]: > 1000 nM

O=C(CSc1nc2ccccc2[nH]1)NC1CCN(c2c(F)cc3c(=O)c(C(=O)O)cn(C4CC4)c3c2Cl)C1 (centres undefined)
IC50 [1]: > 1000 nM

NC1CCN(c2c(F)cc3c(=O)c(C(=O)O)cn(C4CC4)c3c2Cl)C1 (centres undefined) [CLINAFLOXACIN]
zone of inhibition at 80 µg/mL [2]: 22 mm
MIC [10]: 1 µg/mL (≈ 2.73 µM)
MIC [11]: 0.125 µg/mL (≈ 0.342 µM)
MIC [12]: 2 µg/mL (≈ 5.47 µM)
zone of inhibition at 80 µg/mL [6]: 22 to 23 mm
zone of inhibition at 80 µg/mL [7]: 13 to 21 mm
zone of inhibition at 80 µg/mL [8]: 7 to 17 mm
MIC [13]: 1 µg/mL (≈ 2.73 µM)

Cc1nccn1CC(=O)NC1CCN(c2c(F)cc3c(=O)c(C(=O)O)cn(C4CC4)c3c2Cl)C1 (centres undefined)
IC50 [1]: > 1000 nM

Cc1nnnn1CCC(=O)NC1CCN(c2c(F)cc3c(=O)c(C(=O)O)cn(C4CC4)c3c2Cl)C1 (centres undefined)
IC50 [1]: > 1000 nM

COc1ccc2[nH]c(SCC(=O)NC3CCN(c4c(F)cc5c(=O)c(C(=O)O)cn(C6CC6)c5c4Cl)C3)nc2c1 (centres undefined)
IC50 [1]: > 1000 nM

Nc1n[nH]c(SCC(=O)NC2CCN(c3c(F)cc4c(=O)c(C(=O)O)cn(C5CC5)c4c3Cl)C2)n1 (centres undefined)
IC50 [1]: > 1000 nM
zone of inhibition at 80 µg/mL [2]: 16 mm
MIC [10]: 16 µg/mL (≈ 30.7 µM)
MIC [3]: 0.72 µM (≈ 0.376 µg/mL)
MIC [11]: 8 µg/mL (≈ 15.3 µM)
inhibition at 20 µM [4]: -7.2%
MIC [12]: > 16 µg/mL
inhibition of growth at 20 µM [5]: 98.2%
zone of inhibition at 80 µg/mL [6]: 16 mm
zone of inhibition at 80 µg/mL [7]: 16 mm
zone of inhibition at 80 µg/mL [8]: 14 mm
MIC [13]: 16 µg/mL (≈ 30.7 µM)
IC50 [9]: > 20000 nM

Cc1nnn(CCC(=O)NC2CCN(c3c(F)cc4c(=O)c(C(=O)O)cn(C5CC5)c4c3Cl)C2)n1 (centres undefined)
IC50 [1]: > 1000 nM

Cc1nnnn1CC(=O)NC1CCN(c2c(F)cc3c(=O)c(C(=O)O)cn(C4CC4)c3c2Cl)C1 (centres undefined)
IC50 [1]: > 1000 nM

O=C(Cn1ncnn1)NC1CCN(c2c(F)cc3c(=O)c(C(=O)O)cn(C4CC4)c3c2Cl)C1 (centres undefined)
IC50 [1]: > 1000 nM
